We go through 3 compounds from ChEMBL document CHEMBL5137092, “Nostosin G and Spiroidesin B from the Cyanobacterium Dolichospermum sp. NIES-1697” (J Nat Prod, 2022).

The experiment deals with Trypsin (Homo sapiens, UniProt P07477+P07478+P35030). As to the kind of experiment: Inhibition of trypsin (unknown origin) using Nalpha-benzoyl-D/L-arginine-4-nitroanilide hydrochloride as substrate preincubated for 5 mins followed by substrate addition and measured upto 30 mins by absorbance based assay. Format: protein assay.
A word on the IC50: it is the point on the concentration scale where inhibition reaches its midpoint. A lower IC50 goes with greater potency. `N=C(N)NCCC[C@@H](CO)NC(=O)[C@H](CCc1ccc(O)cc1)NC(=O)[C@H](O)Cc1ccc(O)cc1` returned an IC50 of over 200 µM. `CC(=O)N[C@@H](CC(C)C)C(=O)N[C@@H](CC(C)C)C(=O)N[C@H](C=O)CCCNC(=N)N` [LEUPEPTIN] had an IC50 of 0.6 µM. With `N=C(N)NCCC[C@@H](C=O)NC(=O)[C@H](CCc1ccc(O)cc1)NC(=O)[C@H](O)Cc1ccc(O)cc1`, the IC50 came out at 0.1 µM.
